Legend:
OAT1 = biological target: T1, OAT1 (Homo sapiens, UniProt Q4U2R8); assay: [14C]-lesinurad uptake, substrate test, OAT1 oocytes; format: in vitro ADME
T1 sequence (Q4U2R8 1-563): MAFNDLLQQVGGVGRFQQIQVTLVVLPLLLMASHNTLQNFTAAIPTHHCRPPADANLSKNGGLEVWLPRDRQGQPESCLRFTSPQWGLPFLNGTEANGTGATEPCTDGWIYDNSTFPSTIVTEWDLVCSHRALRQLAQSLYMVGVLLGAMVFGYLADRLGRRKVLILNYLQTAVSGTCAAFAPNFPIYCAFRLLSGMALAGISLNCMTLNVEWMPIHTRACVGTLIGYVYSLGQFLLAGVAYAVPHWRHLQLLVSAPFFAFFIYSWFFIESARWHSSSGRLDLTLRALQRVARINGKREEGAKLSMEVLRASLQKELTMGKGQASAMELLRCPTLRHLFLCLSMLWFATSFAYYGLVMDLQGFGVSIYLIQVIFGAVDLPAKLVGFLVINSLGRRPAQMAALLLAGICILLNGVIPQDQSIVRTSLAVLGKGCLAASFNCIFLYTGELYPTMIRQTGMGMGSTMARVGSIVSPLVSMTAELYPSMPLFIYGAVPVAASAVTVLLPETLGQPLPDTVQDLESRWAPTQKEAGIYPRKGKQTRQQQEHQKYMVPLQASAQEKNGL

OAT3 = biological target: T2, OAT3 (Homo sapiens, UniProt Q8TCC7); assay: [14C]-lesinurad uptake, substrate test, OAT3 oocytes; format: in vitro ADME
T2 sequence (Q8TCC7 1-542): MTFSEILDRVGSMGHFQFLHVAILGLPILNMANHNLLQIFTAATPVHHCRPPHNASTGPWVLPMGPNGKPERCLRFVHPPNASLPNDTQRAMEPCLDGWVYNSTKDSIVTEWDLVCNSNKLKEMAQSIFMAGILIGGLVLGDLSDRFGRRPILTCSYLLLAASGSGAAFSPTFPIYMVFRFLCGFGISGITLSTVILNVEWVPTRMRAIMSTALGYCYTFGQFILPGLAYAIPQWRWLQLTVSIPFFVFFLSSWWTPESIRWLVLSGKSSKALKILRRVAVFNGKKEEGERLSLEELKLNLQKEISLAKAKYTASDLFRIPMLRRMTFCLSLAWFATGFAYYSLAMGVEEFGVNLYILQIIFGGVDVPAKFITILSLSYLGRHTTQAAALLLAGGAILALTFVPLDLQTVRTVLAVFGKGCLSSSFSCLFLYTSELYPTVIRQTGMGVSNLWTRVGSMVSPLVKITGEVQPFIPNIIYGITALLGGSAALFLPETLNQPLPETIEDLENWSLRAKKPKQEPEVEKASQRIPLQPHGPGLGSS

OCT2 = biological target: T3, OCT2 (Homo sapiens, UniProt O15244); assay: [14C]-lesinurad uptake, substrate test, hOCT2 MDCK-II cells; format: in vitro ADME
T3 sequence (O15244 1-555): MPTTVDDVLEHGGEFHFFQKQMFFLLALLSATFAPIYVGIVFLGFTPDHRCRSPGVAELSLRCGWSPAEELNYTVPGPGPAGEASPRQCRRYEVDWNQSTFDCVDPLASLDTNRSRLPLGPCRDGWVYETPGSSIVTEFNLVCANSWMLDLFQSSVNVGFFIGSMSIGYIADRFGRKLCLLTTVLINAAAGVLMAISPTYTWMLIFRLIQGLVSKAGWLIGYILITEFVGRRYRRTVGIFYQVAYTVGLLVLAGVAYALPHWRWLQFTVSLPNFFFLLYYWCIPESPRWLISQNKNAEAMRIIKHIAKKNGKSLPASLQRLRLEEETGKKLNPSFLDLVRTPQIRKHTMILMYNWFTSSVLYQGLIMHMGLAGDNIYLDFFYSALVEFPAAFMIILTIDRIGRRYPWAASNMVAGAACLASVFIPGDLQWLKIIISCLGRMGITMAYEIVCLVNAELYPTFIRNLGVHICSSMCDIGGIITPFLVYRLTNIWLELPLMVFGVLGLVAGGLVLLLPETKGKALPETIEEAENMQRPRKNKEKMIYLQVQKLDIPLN

OATP1B1 = biological target: T4, OATP1B1 (Homo sapiens, UniProt Q9Y6L6); assay: [14C]-lesinurad uptake, substrate test, hOATP1B1 MDCK-II cells; format: in vitro ADME
T4 sequence (Q9Y6L6 1-691): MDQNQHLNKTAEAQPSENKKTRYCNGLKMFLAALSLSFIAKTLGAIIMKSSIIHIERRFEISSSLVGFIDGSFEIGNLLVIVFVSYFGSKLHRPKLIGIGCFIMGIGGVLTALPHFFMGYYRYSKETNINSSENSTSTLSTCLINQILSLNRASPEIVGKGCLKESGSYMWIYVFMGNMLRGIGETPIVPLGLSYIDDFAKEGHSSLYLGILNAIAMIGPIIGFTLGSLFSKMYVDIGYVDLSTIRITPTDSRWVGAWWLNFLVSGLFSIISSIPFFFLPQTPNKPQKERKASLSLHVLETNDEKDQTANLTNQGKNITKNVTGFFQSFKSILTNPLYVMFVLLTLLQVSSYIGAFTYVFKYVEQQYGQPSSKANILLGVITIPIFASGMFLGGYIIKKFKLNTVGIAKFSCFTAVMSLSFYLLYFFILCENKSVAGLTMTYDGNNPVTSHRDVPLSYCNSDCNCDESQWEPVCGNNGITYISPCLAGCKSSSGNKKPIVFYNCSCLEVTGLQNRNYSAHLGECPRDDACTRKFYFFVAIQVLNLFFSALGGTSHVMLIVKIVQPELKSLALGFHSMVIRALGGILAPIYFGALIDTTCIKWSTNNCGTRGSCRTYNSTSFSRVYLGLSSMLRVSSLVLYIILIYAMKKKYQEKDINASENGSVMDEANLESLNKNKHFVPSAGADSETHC

P-gp = P-gp (Homo sapiens, UniProt P08183); assay: [14C]-lesinurad substrate test, MDCK-MDR1 cells; format: in vitro ADME
[1] = no reference given; cited from earlier work

Chain of P-gp (P08183 whole entry): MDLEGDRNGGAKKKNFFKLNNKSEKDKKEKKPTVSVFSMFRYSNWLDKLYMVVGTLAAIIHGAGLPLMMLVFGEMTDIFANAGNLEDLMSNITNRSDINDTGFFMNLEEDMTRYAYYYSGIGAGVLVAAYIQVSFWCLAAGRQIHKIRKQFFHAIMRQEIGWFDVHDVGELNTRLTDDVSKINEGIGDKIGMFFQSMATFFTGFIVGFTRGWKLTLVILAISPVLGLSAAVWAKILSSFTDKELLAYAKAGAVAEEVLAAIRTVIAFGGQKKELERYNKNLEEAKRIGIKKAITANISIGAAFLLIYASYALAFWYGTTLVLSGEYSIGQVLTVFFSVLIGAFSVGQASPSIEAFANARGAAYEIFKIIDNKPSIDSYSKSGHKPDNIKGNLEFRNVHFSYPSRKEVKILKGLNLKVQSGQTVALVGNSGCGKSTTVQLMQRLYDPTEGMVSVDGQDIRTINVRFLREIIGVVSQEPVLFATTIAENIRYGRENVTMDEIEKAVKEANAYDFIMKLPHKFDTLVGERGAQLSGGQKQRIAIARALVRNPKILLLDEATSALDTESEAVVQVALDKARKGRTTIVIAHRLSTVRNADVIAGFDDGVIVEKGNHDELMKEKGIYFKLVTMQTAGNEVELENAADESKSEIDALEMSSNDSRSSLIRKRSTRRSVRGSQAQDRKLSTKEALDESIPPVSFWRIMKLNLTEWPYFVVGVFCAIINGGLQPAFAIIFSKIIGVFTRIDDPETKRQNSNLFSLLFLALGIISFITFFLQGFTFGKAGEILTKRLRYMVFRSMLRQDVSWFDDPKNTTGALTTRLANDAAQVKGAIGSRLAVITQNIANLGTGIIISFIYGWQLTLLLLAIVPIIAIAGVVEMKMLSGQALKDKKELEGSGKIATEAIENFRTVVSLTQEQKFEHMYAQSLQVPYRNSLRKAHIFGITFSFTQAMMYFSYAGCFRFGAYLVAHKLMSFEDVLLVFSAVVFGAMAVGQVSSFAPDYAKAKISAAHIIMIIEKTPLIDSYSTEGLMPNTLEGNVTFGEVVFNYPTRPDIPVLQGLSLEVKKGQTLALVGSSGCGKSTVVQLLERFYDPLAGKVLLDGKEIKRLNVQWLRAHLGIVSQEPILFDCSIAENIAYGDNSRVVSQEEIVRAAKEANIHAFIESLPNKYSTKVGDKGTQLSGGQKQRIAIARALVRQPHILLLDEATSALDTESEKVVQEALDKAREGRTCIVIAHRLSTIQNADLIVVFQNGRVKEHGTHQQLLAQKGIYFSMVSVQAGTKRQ

Lesinurad as substrate (OAT1): substrate
Lesinurad as substrate (OAT3): substrate
Lesinurad as substrate (OCT2): not a substrate
Lesinurad as substrate (OATP1B1): weak substrate
increase in lesinurad uptake in transfected versus non-transfected cells (OATP1B1; lesinurad 10 µM): 2.25 fold
Lesinurad as substrate (P-gp): not a substrate
SMILES: O=C(O)CSc1nnc(Br)n1-c1ccc(C2CC2)c2ccccc12 [lesinurad]
accumulation during multiple once-daily dosing [1]: does not accumulate
